The record followed here is patent US20240408051A1, “ADMINISTRATION METHOD OF A CHEMOTHERAPEUTIC AGENT” (priority 2021, published 2024).

For test [1], the system named is SW 1088 cells, A-172 cells, U-87 MG cells. Briefly: Cell viability using MTT dye. Type of test: cell-based. As to conditions: Stiripentol at 250 μ/M; SW 1088, A-172, U-87 MG cells; vs untreated negative control. As to the method:
The present disclosure uses Stiripentol as a chemotherapeutic agent to treat brain tumor. Referring to FIG. 1, the cell viability is determined by using MTT dye (3-(4,5-dimethylthiazol-2-yl)-2,5-diphenyltetrazolium bromide and neutral red dye (3-amino-7-dimethylamino-2-methyl-phenazine hydrochloride). Cancer cells from various cell lines (SW 1088 cells, A-172 cells, U-87 MG cells) are incubated with, Stiripentol in the concentration range of 100-250 μ/M. Simultaneously all the cell lines are incubated with etoposide (positive control) in the concentration of 50 μ/M. The cells lines were thereafter treated with 0.05% (w/v) MTT dye for 4 h at 37° C. and DMSO. The cells lines that received no treatment are used as negative control. […] Cells can be incubated with drugs at indicated concentrations and time points. For the MTT assay, at the end of the drug treatments, cells are treated with 0.05% (w/v) MTT dye for 4 h at 37° C. The formazan crystals are dissolved in DMSO and absorbance was measured at 570 nm using the spectrophotometer. Similarly for neutral red assay, Cells are incubated with drugs at indicated concentrations and time points. Briefly, at the end of the drug treatments, cells are incubated with 40 μg/ml neutral red dye for 4 h at 37° C. […] Absorbance was measured at 540 nm using Tecan spectrophotometer.
(Formazan colour is commonly taken as a measure of viable cells.)

The test system is the same in test [2]. The test is described as follows: Cell viability using neutral red dye. It is filed as cell-based. As to conditions: Stiripentol at 250 μ/M; after 24 hours; SW 1088, A-172, U-87 MG cells; vs untreated negative control. As to the method:
According to an embodiment the Cell viability can be determined using MTT dye (3-(4,5-dimethylthiazol-2-yl)-2,5-diphenyltetrazolium bromide) and neutral red dye (3-amino-7-dimethylamino-2-methyl-phenazine hydrochloride). Cells can be incubated with drugs at indicated concentrations and time points. For the MTT assay, at the end of the drug treatments, cells are treated with 0.05% (w/v) MTT dye for 4 h at 37° C. The formazan crystals are dissolved in DMSO and absorbance was measured at 570 nm using the spectrophotometer. Similarly for neutral red assay, Cells are incubated with drugs at indicated concentrations and time points. Briefly, at the end of the drug treatments, cells are incubated with 40 μg/ml neutral red dye for 4 h at 37° C. Cells were then destained using a solution (50% ethanol, 49% deionized water, and 1% glacial acetic acid). Absorbance was measured at 540 nm using Tecan spectrophotometer. Referring to FIG. 2, cell viability can be determined by utilizing natural red dye (3-amino-7-dimethylamino-2-methyl-phenazine hydrochloride). Cancer cells from various cell lines namely SW 1088 cells, A-172 cells, U-87 MG cells are incubated with Stiripentol and Doxorubicin (used as positive control) in the concentration range of 50-250 μ/M. thereafter the cells are treated with 40 μg/ml neutral red dye for 4 h at 37° C. and destained. […]

Test [3] shares this test system. The test is described as follows: Cell proliferation activity using BrdU assay. It is filed as cell-based. As to conditions: Stiripentol at 250 μ/M; after 72 hours; SW 1088, A-172, U-87 MG cells; vs untreated negative control. As to the method:
Referring to FIG. 3, cell proliferative activity of the cancer cells can be determined using BrdU assay. Cancer cells from cell lines namely SW 1088 cells, A-172 cells, U-87 MG cells are incubated with Stiripentol and Doxorubicin (used as positive control) in the concentration range of 50-250 μ/M. The cell lines are treated with 10 micromolar of BrdU for 2 hours and washed with PBS and Formaldehyde. The treated cell lines are incubated with primary antibody and the secondary antibody. The untreated cells lines are used as negative control here.
On the technique in general: Dividing cells build labelled thymidine or BrdU into new DNA.

A further test has as its system LDH enzyme from U-87 MG. The test is described as follows: LDH inhibitory activity. As to conditions: Stiripentol at 200 μ/M; after 24 hours; 1.7 mM pyruvate, 250 μM β-NADH; homogenized U-87 MG cells. It is filed as biochemical. As to the method:
Cancer cells up regulate glycolysis to support rapid growth. LDH is an enzyme part of glycolysis. Referring to FIG. 4 LDH inhibitory activity of Stiripentol can be measured by using LDH enzyme from U-87 MG. The cell culture media is treated with HEPES buffer. Cells are homogenized and treated with the respective drug. Cancer cells thereafter are incubated with Oxamate (used as positive control) at 250 μ/M and Stiripentol at 100 and 200 μ/M respectively. The treated cells are mixed with 1.7 mM of pyruvate and 250 μM of β-NADH.

As to `CC(C)(C)C(O)/C=C/c1ccc2c(c1)OCO2` (stereo not shown) [Stiripentol, 4,4-dimethyl-1-[3,4-(methylendioxy)-phenyl]-1penten-3-ol], the “cell viability (MTT dye)” value in test [1] is on record as “substantial decrease in the cell viability”. The “viability of the cancer cells (natural red dye)” value in test [2] is on record as “substantial reduction in the viability”. The “cell proliferation activity (BrdU)” value in test [3] is “substantial reduction in the cell proliferation activity”. Further, in the test with LDH enzyme from U-87 MG, the “LDH inhibitory activity (production of LDH enzyme)” value is on record as “substantial decrease in the production of LDH enzyme”.
